Where two headings read alike, the source gives them in different places.
How the values were obtained:
[1] = test system: active caspase-3; assay: active caspase-3 level (ELISA) in MDA-MB-231 cells; format: cell-based, human; conditions: 24 h incubation
Experimental: (§1) The levels of two members of Bcl-2 family proteins, the anti-apoptotic Bcl-2 protein, and the counteracting pro-apoptotic Bax protein, as well as the level of active caspase-3 (a key executioner protease) in MDA-MB-231 and MCF-7 cells have been assessed after incubation with QBS 11c and 13b for 24 h.
(§2) All adopted procedures for the conducted in vitro biological assays were performed as described earlier; CA (stopped-flow), cytotoxicity (MTT [37, 38]), and assessment of apoptotic markers assays, as well as induction of hypoxia with cobalt chloride, and were mentioned in the Supporting Materials. […]
(§3) 3. Assessment of Apo ptotic Markers Levels
(§4) The levels of the pro-apoptotic markers (Bax and active caspase-3) as well as the anti-apoptotic marker Bcl-2 were determined using ELISA kits; Human Bax ELISA Kit (EIA-4487) DRG® Instruments, Bcl-2 ELISA Kit (99–0042), Zymed® Laboratories, Invitrogen Immunodetection, and Human Caspase-3 (active) ELISA Kit (KHO1091) Invitrogen®, per the manufacturer’s instructions. Breast cancer MDA-MB-231 and MCF-7 cells were cultured as a monolayer in T-25 flasks and were seeded to attain 30% confluency prior to treatment. Cells were then treated separately with MBFS 11b at its IC50 concentration for 24 h. At the end of treatment, cells were collected via trypsinization and centrifuged at 10,000 rpm. The pellet was then rinsed with PBS and lysed in RIPA lysis buffer at 4 °C for 45 min, then centrifuged at 14,000 rpm for 20 min to remove the cellular debris. Lysates were then collected and stored at −80 °C for later protein determination using Pierce BCA Protein Assay Kit according to manufacturer’s recommendations.
(§5) The cell lysate was diluted 10 times, and 100 μL ([…]) was added to the wells of […] separate microtiter plates for the three ELISA kits th at were pre-coated with primary antibodies specific to Bax, Bcl-2, and caspase-3 proteins, respectively. A secondary biotin-linked antibody specific to the protein captured by the primary antibody was further added to bind the […]
(§6) captured protein, forming a “sandwich” of specific antibodies around the desired protein in the cell lysate. The streptavidin-HRP complex was then used to bind the biotin-linked secondary antibody through its streptavidin portion. The HRP domain reacted with the added TMB substrate to form a colored product that measured at 450 nm by a plate reader ChroMate-4300 after the reaction was terminated via the addition of stop solution. […]
(§7) The ligand 3D structures were prepared by Maestro and their ionization states was checked with Epik at pH 7.4±0.5 then they were subjected to energy minimization using OPLS3 force field in Macromodel with a maximum number of 2500 conjugate gradient iteration and a convergence of 0.05 kcal mol−1 A−1. […]

[2] = test system: Bax; assay: Bax expression level (ELISA) in MCF-7 cells; format: cell-based, human; conditions: 24 h incubation
Experimental: as §1, §2
(§8) monolay er. Cell monolay ers were treated in quadrates with vehicle (DMSO, 0.1% v/v), test samples or Adriamycin as positive control for an exposure time of 72 h. At the end of exposure, MTT solution in PBS (5 mg/ml) was then added to all well including no cell blank and left to incubate for 90 min. The formation of formazan crystals were visually confirmed using phase contract microscopy. DMSO (100 µl/well) was added to dissolve the formazan crystals with shaking for 10 min after which the absorbance was read at 590 nm against no cell blanks on a FLuo Star Optima microplate reader (BMG technologies, Germany). Cell proliferation was calculated comparing the OD values of the DMSO control wells and those of the samples represented as % proliferation to the control. Dose-response experiment was performed on samples producing > or =50% loss of cell proliferation using five serial 2-fold dilutions (50, 25, 12.5, 6.25 and 3.125 µM) of the sample. IC50 values (concentration of sample causing 50% loss of cell proliferation of the vehicle control) were calculated using non-linear regression curve fitting of the dose response plots on GraphPad Prism V.6.0 software.
as §3
(§9) The levels of the pro-apoptotic markers (Bax and active caspase-3) as well as the anti-apoptotic marker Bcl-2 were determined using ELISA kits; Human Bax ELISA Kit (EIA-4487) DRG® Instruments, Bcl-2 ELISA Kit (99–0042), Zymed® Laboratories, Invitrogen Immunodetection, and Human Caspase-3 (active) ELISA Kit (KHO1091) Invitrogen®, per the manufacturer’s instructions. Breast cancer MDA-MB-231 and MCF-7 cells were cultured as a monolayer in T-25 flasks and were seeded to attain 30% confluency prior to treatment. Cells were then treated separately with MBFS 11b at its IC50 concentration for 24 h. […]
(§10) captured protein, forming a “sandwich” of specific antibodies around the desired protein in the cell lysate. […] The HRP domain reacted with the added TMB substrate to form a colored product that measured at 450 nm by a plate reader ChroMate-4300 after the reaction was terminated via the addition of stop solution. […]

[3] = test system: Bcl-2; assay: Bcl-2 expression level (ELISA) in MCF-7 cells; format: cell-based, human; conditions: for Bcl-2 / Bcl-2, folds of control: 24 h incubation; for suppression of the expression level of Bcl-2 protein: compared to the untreated control
Experimental: as §1, §2, §8, §3, §4, §5, §6
as §7, with “A−1. Glide with default” for “A−1.”

[4] = test system: active caspase-3; assay: active caspase-3 level (ELISA) in MCF-7 cells; format: cell-based, human; conditions: 24 h incubation
Experimental: as §1, §2, §8, §3, §9, §10

[5] = target: hCA I (Homo sapiens, UniProt P00915); assay: stopped flow carbon dioxide hydrase assay, hCA I
[6] = target: hCA IX (Homo sapiens, UniProt Q16790); assay: stopped flow carbon dioxide hydrase assay, hCA IX; conditions: for Selectivity ratio I/IX: hCA IX over hCA I; for Selectivity ratio II/IX: hCA IX over hCA II

Sequence of hCA I (P00915 whole entry): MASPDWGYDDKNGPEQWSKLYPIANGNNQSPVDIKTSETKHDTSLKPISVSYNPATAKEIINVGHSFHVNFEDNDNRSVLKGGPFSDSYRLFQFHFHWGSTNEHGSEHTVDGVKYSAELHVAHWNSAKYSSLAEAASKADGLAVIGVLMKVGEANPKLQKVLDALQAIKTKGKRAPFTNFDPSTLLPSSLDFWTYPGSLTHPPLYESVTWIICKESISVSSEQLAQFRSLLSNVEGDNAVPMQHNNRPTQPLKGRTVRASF

SMILES | Active Caspase-3 [1] | Active Caspase-3, folds of control [1] | BAX [2] | BAX, folds of control [2] | Bcl-2 [3] | Bcl-2, folds of control [3] | suppression of the expression level of Bcl-2 protein [3] [%] | Active Caspase-3 [4] | Active Caspase-3, folds of control [4] | Ki [5] [nM] | Selectivity ratio I/IX [6] | Selectivity ratio II/IX [6] | Ki ([6]; read-out: KI CA IX, stopped flow technique, mean from 3 different assays) [nM] | Ki [6] [nM]
NS(=O)(=O)c1cccc(Nc2ccnc3ccc(Cl)cc23)c1 [11c, 3-((6-chloroquinolin-4-yl)amino)benzenesulfonamide] | 12.69 ± 1.14 Pg/mg of Total Protein | 4.93 folds of control | 512.9 ± 11.7 Pg/mg of Total Protein | 5.36 folds of control | 7.29 ± 0.15 Pg/mg of Total Protein | 0.79 folds of control | 21 | 17.83 ± 0.62 Pg/mg of Total Protein | 3.64 folds of control | 442 | 52.7 | 18.4 | 8.4 | –
COc1ccc2nccc(Nc3ccc(S(N)(=O)=O)cc3)c2c1 [13b, 4-((6-methoxyquinolin-4-yl)amino)benzenesulfonamide] | 9.32 ± 0.73 Pg/mg of Total Protein | 3.62 folds of control | 443.9 ± 10.2 Pg/mg of Total Protein | 4.64 folds of control | 5.72 ± 0.13 Pg/mg of Total Protein | 0.62 folds of control | 38 | 14.82 ± 0.43 Pg/mg of Total Protein | 3.02 folds of control | 92.1 | 16.7 | 10.6 | – | 5.5
